In patent EP2623502A1, “NOVEL COMPOUND HAVING STRIGOLACTONE-LIKE ACTIVITY AND USE THEREOF” (Riken, priority 2010, dated 2012):

Experiments:
rice d10 variant = experiment: Tiller (rice branching) inhibitory activity in hydroponic culture; format: in vivo; conditions: for activity of inhibiting the morphology of the tiller / length of the secondary tiller: rice d10 variant; for length of the secondary tiller: compared with untreated d10 variant (Figure 4)
Experimental: In this Example, a rice d10 variant (Arite et al., Plant J, 51 (6) 1019-1029 (2007)) was used, and the strigolactone-like compound of the present invention was examined for its effects on this variant. […] In this d10 variant, the functions of a strigolactone biosynthetic enzyme are inhibited by the variation of the strigolactone biosynthetic gene so that the amount of endogenous strigolactone is decreased.
First, rice seeds were sterilized for 30 minutes with 2.5% sodium hypochlorite containing 0.01% Tween-20 and then washed with sterilized water. Then, the seeds were germinated by culture for 2 days in sterilized water of 25°C under dark conditions. The germinated seeds were transferred to a hydroponic culture medium containing 0.6% agar and grown for 6 days under conditions of a 16-hour light period and an 8-hour dark period under a fluorescent light. […] The number of tillers and the length of each tiller were determined. In this context, the test compounds used were the strigolactone-like compounds BPMF, TFTF, CPMF, NPMF, FPMF, and IPMF shown in Figure 1A, NaMF described in Synthesis Example 3, and GR24 as a control at a concentration of 1 µM, 100 nM, or 10 nM.
In the same way as in Example 1(1), the strigolactone-like compound was examined for its effects on rice tillers.
In this context, the test compounds used were p-CPMF, m-CPMF, o-CPMF, o-FPMF (1-14), o-BPMF (1-15), p-BPMF, 1-NaphMF (1-16), 2-NaphMF (NaMF), CNMF (1-17), CQMF (1-19), and TeMF (1-18) and GR24 as a control at a concentration of 1 µM or 100 nM. Also, PMF and p-CBMF were used at a concentration of 1 µM.
In this context, the test compounds used were 2-1 (2,3-DCMF), 2-2 (2,4-DCMF), 2-3 (2,5-DCMF), and 2-4 (2,6-DCMF) at a concentration of 1 µM, 100 nM, or 10 nM and GR24 as a control at a concentration of 1 µM or 100 nM.
In this context, the test compounds used were p-BPMF, 2,4-DCMF (2-2), o-BBMF (3-1), o-BPMF (1-15), o-CBMF (3-2), o-CPMF, and o-FPMF (1-14) at a concentration of 100 nM or 10 nM, 2-16, 2-6, 2-17, 2-18, and 2-19 at a concentration of 0.1 µM or 1 µM, and GR24 as a control at a concentration of 1 µM or 100 nM.

[1] = in water at 20°C; cited from earlier work
[2] = tested on: Arabidopsis thaliana max3 variant; experiment: Branching inhibitory activity in hydroponic culture; format: in vivo; conditions: for activity of inhibiting the morphology of the tiller of the max3 variant: 5 µM in hydroponic culture solution, 15 days (Figure 6)
Description: In this Example, the strigolactone-like compound BPMF of the present invention was examined for its effects on an Arabidopsis thaliana max3 variant. The Arabidopsis thaliana max3 variant is a strigolactone-deficient variant, as in the rice d10 variant, and is known to have a larger number of branches (Booker J. et al., Current Biology, 14: 1232-1238 (2004)).
Briefly speaking, the surfaces of the respective seeds of wild-type Arabidopsis thaliana and the max3 variant were separately sterilized for 5 minutes with a 1% aqueous sodium hypochlorite solution. The thus-treated seeds of each strain were washed five times with sterilized water and allowed to absorb water at 4°C for 1 day under dark conditions. Then, the seeds were inoculated to a 1/2 MS medium containing 1% sucrose and 0.8% agar and cultured at 22°C for 15 days under conditions of a 16-hour day length under a fluorescent light (60 to 70 µmol m^-2 s^-1). […] Nine healthy seedlings were selected from each pot and further hydroponically cultured for 15 days (a total of 30 days) so as to prevent the above-ground part from being wetted by the hydroponic culture solution. The test compounds used were BPMF and GR24 (control). The test compound-containing hydroponic culture solution was replaced every three days.

endogenous strigolactone = experiment: Measurement of amount of endogenous strigolactone (LC/MS-MS); format: in vivo, rice (Shiokari); conditions: 24 hours, 0.1 µM, 1 µM or 10 µM
Experimental: In this Example, the amount of strigolactone exudates from a plant treated with the strigolactone-like compound was measured.
A sterilized solution I (2.5% sodium hypochlorite and 0.01% Tween-20) was added to rice seeds (Shiokari) and shaken at room temperature for 15 minutes. The sterilized solution I was discarded, and a sterilized solution II (2.5% sodium hypochlorite) was added thereto and shaken at room temperature for 15 minutes. In a clean bench, the sterilized solution II was discarded, and the seeds were washed five times with sterilized water and left standing at 25°C for 2 days in a dark place. Two days later, the germinated seeds were transplanted in an agar medium for hydroponic rice culture and left standing at 25°C for 6 days under conditions of a 16-hour light period and an 8-hour dark period. […]
To each hydroponic rice culture solution, 200 pg of d1-2'-epi-5-deoxystrigol per 10 mL of the hydroponic rice culture solution was added, followed by extraction with ethyl acetate (3 mL) twice. […] The sample was dried, dissolved in 50% acetonitrile, and analyzed by LC/MS-MS.
To the rice root dipped in acetone, 200 pg of d1-2'-epi-5-deoxystrigol was added, and the root was then disrupted. […] The sample was dried, dissolved in 50% acetonitrile, and analyzed by LC/MS-MS.

[3] = Stability test in water (residual compound by HPLC); format: physicochemical; conditions: 30 days in water at 20°C, read-out: stably present after being left in water
Experimental: The strigolactone-like compound BPMF was left for 30 days in water at 20°C, and change in its activity was then determined. Briefly speaking, rice was hydroponically cultured in the same way as in the hydroponic rice culture solution test conducted in Example 3, and the amount of a residual compound in the resulting solution was calculated using HPLC. First, the hydroponic culture solution adjusted to a predetermined concentration was collected at regular intervals and filtered through a filter. Then, a predetermined amount (e.g., 10 µl) was analyzed by HPLC. The content was determined on the basis of an area value, and the degree of decomposition was calculated by comparison with a standard.

parasitic weed = experiment: Parasitic weed germination-inducing activity (result not shown); format: in vivo; conditions: compared with p-BPMF
Experimental: In this Example, the seeds of a parasitic weed Orobanche minor or Striga hermonthica were used, and the strigolactone-like compound of the present invention was examined for its parasitic weed germination-promoting activity.
The Striga hermonthica seeds were dipped in a 0.5% sodium hypochlorite solution containing 0.03% Tween and sterilized by treatment for 3 minutes using an ultrasonic generator. The seeds were washed three times with sterilized water and surface-dried at 27°C. Then, approximately 50 seeds were left, for preculture, at room temperature for 10 to 12 days under dark conditions on an 8-mm glass fiber filter paper moistened with 50 µl of sterilized water. A solution of each test compound concentration-adjusted by dissolution in sterilized water was used in bioassay. A filter paper was placed on a 5-cm Petri dish, and 1 ml of the test compound solution or sterilized water for comparison was added thereto. The glass fiber filter paper with the precultured parasitic weed seeds placed thereon was put on the resulting Petri dish and cultured at 30°C for 24 hours, followed by calculation of the germination rate. The test compounds used were the strigolactone-like compound BPMF shown in Figure 1A and GR24 as control at a concentration of 50 µM. […]

[4] = concentration of 100 nM, Example 8 (Figure 14)
[5] = concentration of 100 nM, Example 10 (Figures 16-1, 16-2)

With `CC1=CC(Oc2cccc(Cl)c2Cl)OC1=O` (stereo not shown) [2-1] the “activity of inhibiting the morphology of the tiller” value (rice d10 variant; [4]) was “high activity”.

In the case of `CC1=CC(Oc2ccc(Cl)cc2Cl)OC1=O` (stereo not shown) [2-2], the “activity of inhibiting the morphology of the tiller” value (rice d10 variant; [4]) is reported as “high activity” and the “activity of inhibiting the morphology of the tiller” value (rice d10 variant; [5]) is reported as “high activity”.

In the case of `CC1=CC(Oc2cc(Cl)ccc2Cl)OC1=O` (stereo not shown) [2-3], the “activity of inhibiting the morphology of the tiller” value (rice d10 variant; [4]) is reported as “high activity”.

With `CC1=CC(Oc2ccc(Br)cc2Br)OC1=O` (stereo not shown) [2-6] the “activity of inhibiting the morphology of the tiller” value (rice d10 variant; [5]) was “high activity”.

With `CC1=CC(Oc2ccc(F)cc2F)OC1=O` (stereo not shown) [2-16] the “activity of inhibiting the morphology of the tiller” value (rice d10 variant; [5]) was “high activity”.

With `CC1=CC(Oc2ccc(I)cc2I)OC1=O` (stereo not shown) [2-17] the “activity of inhibiting the morphology of the tiller” value (rice d10 variant; [5]) was “high activity”.

With `CC1=CC(Oc2ccc(C(F)(F)F)cc2C(F)(F)F)OC1=O` (stereo not shown) [2-18] the “activity of inhibiting the morphology of the tiller” value (rice d10 variant; [5]) was “high activity”.

In the case of `CC1=CC(Oc2ccc(C#N)cc2C#N)OC1=O` (stereo not shown) [2-19], the “activity of inhibiting the morphology of the tiller” value (rice d10 variant; [5]) is reported as “high activity”.

In the case of `CC1=CC(OC=C2C(=O)OC3C4=C(CCCC4(C)C)CC23)OC1=O` (stereo not shown) [5-DS], the half-life [1] is given as “approximately 1.5 days”.

With `CC1=CC(Oc2ccc(Br)cc2)OC1=O` (stereo not shown) [BPMF, 5-(4-bromophenoxy)-3-methylfuran-2(5H)-one] the “activity of inhibiting the morphology of the tiller of the max3 variant” value [2] was “exhibited the activity of inhibiting the morphology of the tiller of the max3 variant”, the “morphology of the max3 variant” value ([2]; after 30-day growth, 1 µM (Figure 7)) was “restored its morphology similar to that of the wild-type strain” and the “amount of endogenous strigolactone exudates from the rice root to the hydroponic culture solution” value (endogenous strigolactone; compared with GR24 (Figure 10)) was “decreased the amount of natural strigolactone synthesized, and this effect was higher than that of GR24”. For the same molecule, the “amount of plant natural strigolactone synthesized” value (endogenous strigolactone; in the hydroponic rice culture solution and the rice root) was “decreased”, the “morphology of the d10 variant” value (rice d10 variant; after 12-day growth, 10 µM (Figure 3)) was “restored its morphology similar to that of the wild-type strain” and the “concentration-dependent activity against the rice d10 variant” value (rice d10 variant; compared with GR24 (Figure 4)) was “strong activity, which was larger than that of the typical non-natural strigolactone GR24”. The “time-dependent change in the number of tillers” value (rice d10 variant; d10 variant, 27, 37 and 47 days after treatment with 1 nM or 10 nM (Figure 5)) was “more effective and have more persistent activity than GR24”, the “length of the secondary tiller” value (rice d10 variant) was “obviously inhibited” and the “activity of inhibiting the morphology of the tiller” value (rice d10 variant; concentration of 10 nM (Figure 2)) was “strongest activity”. The “activity of inhibiting the morphology of the tiller” value (rice d10 variant; concentration of 100 nM, Example 6 (Figures 12-1 to 12-3)) was “strongest activity”, the “activity of inhibiting the morphology of the tiller” value (rice d10 variant; [5]) was “high activity” and the remaining at 720 h [3] was at least 95%.

For `CC1=CC(OC=C2C(=O)OC3c4ccccc4CC23)OC1=O` (stereo not shown) [GR24, reference compound], the “activity of inhibiting the morphology of the tiller of the max3 variant” value [2] is listed as “exhibited the activity of inhibiting the morphology of the tiller of the max3 variant” and the half-life [1] is listed as “approximately 10 days”.

For `CC1=CC(Oc2ccc3ccccc3c2)OC1=O` (stereo not shown) [NaMF], the “activity of inhibiting the morphology of the tiller” value (rice d10 variant; 6 days in hydroponic solution with compound at 1 µM, 100 nM or 10 nM (Figure 2)) was “slightly weaker than that of the other compounds”.

With `CC1=CC(Oc2ccc(C(F)(F)F)cc2)OC1=O` (stereo not shown) [TFTF] the “length of the secondary tiller” value (rice d10 variant) was “obviously inhibited”.

For `CC1=CC(Oc2ccccc2Br)OC1=O` (stereo not shown) [o-BPMF], the “parasitic weed germination-inducing activity” value (parasitic weed) was “stronger parasitic weed germination-inducing activity than that of p-BPMF”, the tiller inhibitory activity (rice d10 variant; result not shown) was “weak tiller inhibitory activity” and the “activity of inhibiting the morphology of the tiller” value (rice d10 variant; [5]) was “high activity”.

With `CC1=CC(Oc2ccccc2Cl)OC1=O` (stereo not shown) [o-CPMF] the “activity of inhibiting the morphology of the tiller” value (rice d10 variant; [5]) was “high activity”.

In the case of `CC1=CC(Oc2ccccc2F)OC1=O` (stereo not shown) [o-FPMF], the “activity of inhibiting the morphology of the tiller” value (rice d10 variant; [5]) is reported as “high activity”.
